Reference: US8580789B2, “Treating glaucoma” (The Cleveland Clinic Foundation, priority 2007, dated 2013)
Several values for one entry are separate records, joined by “and”; a condition that tells them apart may be missing. Equal entries are not always repeated.

Tests used:
[1] = system: porcine sclera; conditions: scleral strips; 1 hour glutaraldehyde, 5 days glyceraldehydes, 30 minutes UVA for riboflavin/UVA; cited from earlier work
[2] = system: peripapillary sclera; test: Photographic circumferential strain analysis during IOP elevation, peripapillary sclera; design: species or system porcine; conditions: Group 3; GTA on PS only; IOP 2-4 to 80 mmHg
Method: (§1) Eighteen porcine globes were divided evenly into 3 groups. The optic nerves were transected to expose the ON/LC, and each globe was infused through an in-line pressure transducer for direct IOP control. Surface wave velocity, a non-destructive measure of tissue stiffness, was measured across the ON/LC and PS before and after collagen crosslinking at IOP of 10 and 30 mmHg (groups 1 and 2) and at each globe's preinflation IOP and 80 mmHg (group 3). In group 3, papillary strain was measured by analyzing the displacement of fiducial marks immediately adjacent to the ON/LC using digital photography.
(§2) In group 3 (n=6), the same procedure described for group 2 was implemented with the following exceptions. First, four fiducial ink marks were placed in each quadrant of the PS immediately adjacent to the ON/LC prior to measurement. High-resolution (7.1 megapixel) digital photos were then taken at both low and high IOP before and after crosslinking. The vertical and horizontal distances between the outer extent of the ink marks and the outer margins of the optic nerve were measured in Photoshop (Adobe Systems, Inc., San Jose, Calif.), and the centripetal displacement of the fiducial marks (Δ1) was divided by the initial distance between the marks (10) to yield dimensionless indicators of circumferential strain (ζ=Δ1/10) in the peripapillary sclera and ON/LC, respectively. Second, measurements were acquired at each eye's pre-inflation pressure (between 2 to 4 mmHg) and at 80 mmHg to ensure that measurable changes in SWV and ON/LC geometry would be generated in at least one experimental group. As in group 2, the peripapillary sclera was selectively exposed to GTA and post-crosslinking measurements were repeated at low and high IOP. Same-eye statistical comparisons of wave velocity and strain were performed with paired student's t-tests.

[3] = system: optic nerve/lamina cribrosa complex; test: Photographic circumferential strain analysis during IOP elevation, ON/LC; design: species or system porcine; conditions: Group 3; GTA on PS only; IOP 2-4 to 80 mmHg
Method: as §1, §2

[4] = system: human sclera; conditions: scleral strips; 1 hour glutaraldehyde, 5 days glyceraldehydes, 30 minutes UVA for riboflavin/UVA; cited from earlier work
[5] = system: peripapillary sclera; test: Estimate of PS ring elastic (secant) modulus by LaPlace equation and measured strain; design: species or system porcine
Description: By a similar analysis of strain across the ON in the same eyes, the pressure-induced change in ON diameter was 10.5±3.9% horizontally and 9.4±6.5% vertically prior to crosslinking. The combined vertical and horizontal strain averaged 7.3±4.4% across the PS ring and 10.2±5.4% across the ON/LC region alone (p=0.22). […] The native stiffness value compares favorably to the porcine scleral modulus of 500 kPa measured by Pierscionek B K, et al., Br J Opthalmol.; 91(6):801-803 (2007) particularly since their measurement was obtained at a lower peak pressure (50 mmHg) and was obtained from the entire sclera, which incorporates the thinner and effectively more elastic sclera anterior to the posterior pole (Olsen T W, et al., Invest Opthalmol Vis Sci; 43(8):2529-2532 (2002)).
The elastic modulus (E) of peripapillary sclera (PS) in Group 3 was estimated before and after crosslinking. First, measured PS strain was […] the circumferential stress as derived from the LaPlace equation, σ=IOP×R/2t, where σ indicates the circumferential stress as a function of IOP, scleral radius of curvature (R), and sclera thickness (t). […]

SMILES: O=CCCCC=O [GTA, glutaraldehyde]
- Rise in porcine scleral stress (rigidity) [1]: 8 ×
- Average Circumferential Strain of PS with IOP elevation, Post-Crosslinking Mean ± SD [2]: 0.38% and 0.4 ± 1.3%
- Horizontal Circumferential Strain of PS with IOP elevation, Post-Crosslinking Mean ± SD [2]: 0.0 ± 0.0%
- Vertical Circumferential Strain of PS with IOP elevation, Post-Crosslinking Mean ± SD [2]: 0.7 ± 1.9%
- Average Circumferential Strain of ON/LC with IOP elevation, Post-Crosslinking Mean ± SD [3]: 0.0 ± 0.0%
- Horizontal Circumferential Strain of ON/LC with IOP elevation, Post-Crosslinking Mean ± SD [3]: 0.0 ± 0.0%
- Vertical Circumferential Strain of ON/LC with IOP elevation, Post-Crosslinking Mean ± SD [3]: 0.0 ± 0.0%
- Rise in human scleral stress (rigidity) [4]: 122%
- PS ring elastic modulus after crosslinking (estimate) ([5]; Group 3, GTA, stress increment 4 to 80 mmHg divided by crosslinked strain): 16.1 MPa
- Increase in stiffness (elastic modulus) of peripapillary sclera with crosslinking ([5]; glutaraldehyde-mediated crosslinking, estimate): ~20 fold
